# Patent US11207365B2, “Combined preparations of urinary acidifiers and crystallization inhibitors and application thereof for the treatment or prevention of phosphatic or calcium phosphate-induced renal lithiasis” (UNIVERSITAT DE LES ILLES BALEARS, priority 2014, dated 2021)
# Assay: Induction time for the crystallization of calcium phosphate in artificial urine
# Details: for induction time t: 15 mM phosphate and 3 mM calcium solution in artificial urine (no magnesium); for delay in the induction time: 1 μM phytate versus solution without inhibitor
# Procedure: From a 15 mM phosphate ion and 3 mM calcium ion solution in artificial urine, the induction times for the crystallization of calcium phosphate have been calculated at different pH and phytate concentration. The artificial urine had no magnesium since it is shown that the magnesium ion is a calcium phosphate crystallization inhibitor. […] Thus, while at pH 6.75, the calcium phosphate solution (without inhibitor) takes 1 minute to crystallize, with 1 μM phytate it takes 2 minutes (the delay in the induction time at this pH value is 1 minute, for 1 μM phytate). However, when the pH decreases to 6.60, the calcium phosphate solution (without inhibitor) takes 6 minutes to crystallize, while with 1 μM phytate it takes 33 minutes (the delay in the induction time at this pH value is 27 minutes, for 1 μM phytate). Thus, for the same amount of inhibitor there is a significant increase of the crystallization time when the value of the pH of the solution decreases.
smiles,measurement,setting,value
"O=P(O)(O)O[C@H]1[C@H](OP(=O)(O)O)[C@@H](OP(=O)(O)O)[C@H](OP(=O)(O)O)[C@@H](OP(=O)(O)O)[C@H]1OP(=O)(O)O [phytate, myo-inositol-hexaphosphate]",induction time t,"0.5 μM phytate, pH = 6.60",12 min
same,induction time t,"0.5 μM phytate, pH = 6.65",4 min
same,induction time t,"0.5 μM phytate, pH = 6.75",1 min
same,delay in the induction time,pH 6.60,27 min
same,delay in the induction time,pH 6.75,1 min
same,induction time t,"1.0 μM phytate, pH = 6.60",33 min
same,induction time t,"1.0 μM phytate, pH = 6.65",6 min
same,induction time t,"1.0 μM phytate, pH = 6.75",2 min
